According to patent publication US20250026762A1, “FUSED PYRAZOLE UREA ANALOGS AS GLUCOSYLCERAMIDE SYNTHASE INHIBITORS” (Merck Sharp & Dohme LLC, priority 2021, published 2025):

Test system: GD and PD patient-derived induced pluripotent stem cell (iPSC) neurons
Experiment: not given
Settings: Zunke, F. et al., Neuron 2018; cited from earlier work
In the case of CCCCCCCC(=O)N[C@H](CN1CCCC1)[C@H](O)c1ccc2c(c1)OCCO2 [eliglustat, Eliglustat], the “formation of pathological α-synuclein aggregates” value is listed as “reverse the formation of pathological α-synuclein aggregates”.

Biological target: glucosylceramide synthase (GCS) enzyme in Golgi preparations from human A375 malignant melanoma skin cells (Homo sapiens (Human), UniProt Q16739)
Sequence (Q16739 whole entry): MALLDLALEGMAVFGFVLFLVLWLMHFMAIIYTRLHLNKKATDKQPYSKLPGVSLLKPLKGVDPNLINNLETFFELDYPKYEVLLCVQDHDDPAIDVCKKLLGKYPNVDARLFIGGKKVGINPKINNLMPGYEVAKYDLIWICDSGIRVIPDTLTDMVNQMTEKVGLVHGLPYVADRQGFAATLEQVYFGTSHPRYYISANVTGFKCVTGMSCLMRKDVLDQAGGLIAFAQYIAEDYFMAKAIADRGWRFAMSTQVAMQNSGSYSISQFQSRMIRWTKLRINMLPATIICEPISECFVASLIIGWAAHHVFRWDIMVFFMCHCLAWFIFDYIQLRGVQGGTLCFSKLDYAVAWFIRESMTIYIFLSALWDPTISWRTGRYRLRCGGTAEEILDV
Experiment: UDP-Glo glucosylceramide synthase biochemical assay
Settings: 1.5 μg crude golgi preparation; C6 ceramide and UDP-glucose at 2×Km; 20 h incubation at room temperature; luminescence
Description: UDP-Glo™ Glucosylceramide Synthase Biochemical Assay
A UDP-Glo™ glucosylceramide synthase biochemical assay was utilized to evaluate the effect of test compounds on the activity of endogenous levels of GCS enzyme contained within Golgi preparations isolated from human A375 malignant melanoma skin cells. The UDP-Glo™ glucosylceramide synthase assay uses UDP-Glucose as a nucleotide-glycosyl donor and ceramide as substrate acceptor molecules. In the reaction, glucosylceramide synthase (GCS) transfers glucose from UDP-Glucose to ceramide. Glucosylceramide and UDP are released as products.
Using Promega's UDP-Glo™ Glycosyltransferase assay kit (Promega Corporation, Madison, WI, USA (Promega)), GCS activity was indirectly measured by detecting the amount of UDP produced. An aliquot of GCS enzyme (1.5 μg crude golgi preparation, total protein) and titrated test compound were aliquoted to each well and incubated for 30 minutes at room temperature. Substrate mixture was prepared by mixing C6 ceramide (Avanti Polar Lipids, Alabaster, AL USA (Avanti)) (micelles prepared at 0.6 mM in 0.6 mM DOPC) and UDP-glucose (20 μM; Promega), at concentrations equivalent to 2×Km, in assay buffer (25 mM HEPES (pH 7.5), 50 mM KCl, 5 mM MgCl2). An equivalent volume of substrate mixture was then added to each well. Following a 20 h incubation at room temperature to allow for GCS turnover of substrate, an equal volume of UDP detection reagent (Promega) was added to each well and incubated for an additional 75 minutes at room temperature to simultaneously convert the accumulated UDP product into ATP and generate light in a luciferase reaction. The generated light was detected using a luminometer. […] luminescence values (RLUs) were normalized to mean “min” and “max” effects, as determined on each plate. “Min” was defined as the mean of the values of the wells treated with vehicle (DMSO) and which represent 0% inhibition; “max” was defined as the mean of the values of the wells treated with a reference inhibitor and which represent the 100% effect. Values for % Emax and EC50 were determined by best-fitting the normalized data to a curve in Activity Base along a four-parameter logistic nonlinear regression (4PL) model (based on the Levenberg-Marquardt algorithm and defined by the equation below): […]
where: n is 4PMin (bottom of the curve); m is 4PMax (top of the curve); i is IP (inflection point of curve); andp is slope. See Levenberg, K., “A Method for the Solution of Certain Problems in Least Squares”, Quart. Appl. Math. 2, (1944), pp 164-168 and Marquardt, D., “An Algorithm for Least Squares Estimation on Nonlinear Parameters”, SIAM J. Appl. Math. 11, (1963) pp 431-441.
In the case of Cc1cnn(-c2nn(C(=O)N3CCN4CCC3CC4)c3c2CCC3)c1 [Compound 57, (1,4-diazabicyclo[3.2.2]nonan-4-yl)(3-(4-methyl-1H-pyrazol-1-yl)-5,6-dihydrocyclopenta[c]pyrazol-1(4H)-yl)methanone], the EC50 is reported as 9.2 nM. COc1cnn(-c2nn(C(=O)N3CCN4CCC3CC4)c3c2CCC3)c1 [Compound 58, (1,4-diazabicyclo[3.2.2]nonan-4-yl)(3-(4-methoxy-1H-pyrazol-1-yl)-5,6-dihydrocyclopenta[c]pyrazol-1(4H)-yl)methanone] showed an EC50 of 10 nM. In the case of O=C(N1CCN2CCC1CC2)n1nc(-n2cc(C(F)(F)F)cn2)c2c1CCOC2 [Compound 59, (1,4-diazabicyclo[3.2.2]nonan-4-yl)(3-(4-(trifluoromethyl)-1H-pyrazol-1-yl)-6,7-dihydropyrano[4,3-c]pyrazol-1(4H)-yl)methanone], the EC50 is reported as 3.1 nM. Compound O=C(N1CCN2CCC1CC2)n1nc(-n2cc(Cl)cn2)c2c1CCOC2 [Compound 60, (1,4-diazabicyclo[3.2.2]nonan-4-yl)(3-(4-chloro-1H-pyrazol-1-yl)-6,7-dihydropyrano[4,3-c]pyrazol-1(4H)-yl)methanone] has an EC50 of 4.8 nM. O=C(N1CCN2CCC1CC2)n1nc(-n2cc(C(F)(F)F)cn2)c2c1[C@H]1C[C@H]1C2 [Compound 61, (1,4-diazabicyclo[3.2.2]nonan-4-yl)((4aS,5aS)-3-(4-(trifluoromethyl)-1H-pyrazol-1-yl)-4,4a,5,5a-tetrahydro-1H-cyclopropa[4,5]cyclopenta[1,2-c]pyrazol-1-yl)methanone] showed an EC50 of 0.1 nM. CC1CCOc2c1c(-c1ccc(F)cc1)nn2C(=O)N1CCN2CCC1CC2 (stereo not drawn) [Compound 62, R and S-(1,4-diazabicyclo[3.2.2]nonan-4-yl)(3-(4-fluorophenyl)-4-methyl-5,6-dihydropyrano[2,3-c]pyrazol-1(4H)-yl)methanone] gave an EC50 of 7.7 nM. Work on CC1CCc2c(-c3ccc(F)cc3)nn(C(=O)N3CCN4CCC3CC4)c2O1 (stereo not drawn) [Compound 63, R and S-(1,4-diazabicyclo-[3.2.2]nonan-4-yl)(3-(4-fluorophenyl)-6-methyl-5,6-dihydropyrano[2,3-c]pyrazol-1(4H)-yl)methanone] yielded an EC50 of 17.5 nM. For Cc1c(-c2ccc(F)cc2)nn(C(=O)N2CCN3CCC2CC3)c1C [Compound 64, (1,4-diazabicyclo[3.2.2]nonan-4-yl)(3-(4-fluorophenyl)-4,5-dimethyl-1H-pyrazol-1-yl)methanone], the EC50 was 8.8 nM.
